# From the supplement of paper PMC8967900
# Test system: COG-LL-402h
# Experiment: selective drug sensitivity score (sDSS, relative to normal bone marrow) (sDSS (score)); higher = more potent and effective on the cell line relative to normal bone marrow cells
# Settings: 72 h
# 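Also: ALL cell lines in 384-well plates, five doses spanning 10,000-fold, each plate scaled between vehicle and 100 µmol/L benzalkonium chloride controls, sDSS an adapted area-under-curve metric.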
row,SMILES,selective drug sensitivity score
1,Nc1ncnc2c1c(COc1cccc(Cl)c1)nn2C1CCOCC1 (top concentration 10000 nM),1.56
2,CC1(C)CNc2cc(NC(=O)c3cccnc3NCc3ccncc3)ccc21 [Motesanib] (top concentration 10000 nM),1.98
3,NC(=O)c1cccc(-c2cccc(OC(=O)NC3CCCCC3)c2)c1 [URB597] (top concentration 1000 nM),-0.46
4,CCCN(CCC)C(=O)C1=Cc2ccc(-c3ccc(C(=O)N4CCCC4)cc3)cc2N=C(N)C1 [Motolimod] (top concentration 10000 nM),-4.48
5,CCCOc1ccn2c(C(C)=O)cc(-c3ccccc3S(C)(=O)=O)c2c1 [GSK2801] (top concentration 10000 nM),-0.36
6,Nc1cc(COc2c(Cl)cc(C[C@H](N)C(=O)O)cc2Cl)c2oc(-c3ccccc3)nc2c1 [JPH203] (top concentration 5000 nM),0
7,CC/C(=C(\c1ccccc1)c1ccc(OCCN(C)C)cc1)c1ccccc1 [Tamoxifen] (top concentration 10000 nM),1.22
8,NC(=S)N/N=C/c1ncccc1N [Triapine] (top concentration 10000 nM),9.28
9,C=CCN(/C=C1/C(=O)O[C@H](COC)[C@@]2(C)C1=C(O)C(=O)C1=C2[C@H](OC(C)=O)C[C@]2(C)C(=O)CC[C@@H]12)CC=C [Sonolisib] (top concentration 10000 nM),-0.76
10,C[C@H]1CNCCCN1S(=O)(=O)c1cccc2cncc(F)c12 [Ripasudil] (top concentration 10000 nM),-0.22
11,C[C@@H](Oc1cc(-c2cnn(C3CCNCC3)c2)cnc1N)c1c(Cl)ccc(F)c1Cl [Crizotinib] (top concentration 1000 nM),-0.54
12,CCN(CC)CCCC(C)Nc1ccnc2cc(Cl)ccc12 (stereo not given) [Chloroquine] (top concentration 100000 nM),-3.94
13,N#CC(c1ccnc(OCc2ccc(CN3CCOCC3)cc2)n1)c1nc2ccccc2s1 (stereo not given) [Bentamapimod] (top concentration 10000 nM),1.54
14,COc1cc(N2CCC(N3CCN(C)CC3)CC2)ccc1Nc1ncnc(Nc2ccccc2S(=O)(=O)C(C)C)n1 [ASP3026] (top concentration 10000 nM),1.76
15,COCCOc1cnc2ccn([C@H](C)c3nnc4c(F)cc(-c5cnn(C)c5)cn34)c(=O)c2c1 [AMG-337] (top concentration 10000 nM),-0.06
16,Cc1cnc(NC(=O)Nc2cc(Br)c(C)cc2OC[C@@H]2CNCCO2)cn1 [Rabusertib] (top concentration 1000 nM),1.36
17,CNC(=O)c1ccc(-c2cnc3ncc(Cc4ccc5ncccc5c4)n3n2)cc1F [Capmatinib] (top concentration 1000 nM),0.74
18,COc1cc2/c(=N/c3ccc(Br)cc3F)nc[nH]c2cc1OCC1CCN(C)CC1 [Vandetanib] (top concentration 1000 nM),0.18

# Test system: HPB-ALL
# Experiment: as above
# Settings: 72 h
row,SMILES,selective drug sensitivity score
1,Nc1ncnc2c1c(COc1cccc(Cl)c1)nn2C1CCOCC1 (top concentration 10000 nM),1.26
2,CC1(C)CNc2cc(NC(=O)c3cccnc3NCc3ccncc3)ccc21 [Motesanib] (top concentration 10000 nM),-0.22
3,NC(=O)c1cccc(-c2cccc(OC(=O)NC3CCCCC3)c2)c1 [URB597] (top concentration 1000 nM),-0.26
4,CCCN(CCC)C(=O)C1=Cc2ccc(-c3ccc(C(=O)N4CCCC4)cc3)cc2N=C(N)C1 [Motolimod] (top concentration 10000 nM),-3.38
5,CCCOc1ccn2c(C(C)=O)cc(-c3ccccc3S(C)(=O)=O)c2c1 [GSK2801] (top concentration 10000 nM),-0.36
6,Nc1cc(COc2c(Cl)cc(C[C@H](N)C(=O)O)cc2Cl)c2oc(-c3ccccc3)nc2c1 [JPH203] (top concentration 5000 nM),0
7,CC/C(=C(\c1ccccc1)c1ccc(OCCN(C)C)cc1)c1ccccc1 [Tamoxifen] (top concentration 10000 nM),6.02
8,NC(=S)N/N=C/c1ncccc1N [Triapine] (top concentration 10000 nM),1.58
9,C=CCN(/C=C1/C(=O)O[C@H](COC)[C@@]2(C)C1=C(O)C(=O)C1=C2[C@H](OC(C)=O)C[C@]2(C)C(=O)CC[C@@H]12)CC=C [Sonolisib] (top concentration 10000 nM),-0.76
10,C[C@H]1CNCCCN1S(=O)(=O)c1cccc2cncc(F)c12 [Ripasudil] (top concentration 10000 nM),-0.22
11,C[C@@H](Oc1cc(-c2cnn(C3CCNCC3)c2)cnc1N)c1c(Cl)ccc(F)c1Cl [Crizotinib] (top concentration 1000 nM),-0.54
12,CCN(CC)CCCC(C)Nc1ccnc2cc(Cl)ccc12 (stereo not given) [Chloroquine] (top concentration 100000 nM),-6.64
13,N#CC(c1ccnc(OCc2ccc(CN3CCOCC3)cc2)n1)c1nc2ccccc2s1 (stereo not given) [Bentamapimod] (top concentration 10000 nM),3.34
14,COc1cc(N2CCC(N3CCN(C)CC3)CC2)ccc1Nc1ncnc(Nc2ccccc2S(=O)(=O)C(C)C)n1 [ASP3026] (top concentration 10000 nM),1.26
15,COCCOc1cnc2ccn([C@H](C)c3nnc4c(F)cc(-c5cnn(C)c5)cn34)c(=O)c2c1 [AMG-337] (top concentration 10000 nM),1.54
16,Cc1cnc(NC(=O)Nc2cc(Br)c(C)cc2OC[C@@H]2CNCCO2)cn1 [Rabusertib] (top concentration 1000 nM),-0.74
17,CNC(=O)c1ccc(-c2cnc3ncc(Cc4ccc5ncccc5c4)n3n2)cc1F [Capmatinib] (top concentration 1000 nM),-0.06
18,COc1cc2/c(=N/c3ccc(Br)cc3F)nc[nH]c2cc1OCC1CCN(C)CC1 [Vandetanib] (top concentration 1000 nM),-0.22

# Test system: CCRF-HSB2
# Experiment: as above
# Settings: 72 h
row,SMILES,selective drug sensitivity score
1,Nc1ncnc2c1c(COc1cccc(Cl)c1)nn2C1CCOCC1 (top concentration 10000 nM),2.96
2,CC1(C)CNc2cc(NC(=O)c3cccnc3NCc3ccncc3)ccc21 [Motesanib] (top concentration 10000 nM),1.08
3,NC(=O)c1cccc(-c2cccc(OC(=O)NC3CCCCC3)c2)c1 [URB597] (top concentration 1000 nM),-0.46
4,CCCN(CCC)C(=O)C1=Cc2ccc(-c3ccc(C(=O)N4CCCC4)cc3)cc2N=C(N)C1 [Motolimod] (top concentration 10000 nM),-3.48
5,CCCOc1ccn2c(C(C)=O)cc(-c3ccccc3S(C)(=O)=O)c2c1 [GSK2801] (top concentration 10000 nM),-0.36
6,Nc1cc(COc2c(Cl)cc(C[C@H](N)C(=O)O)cc2Cl)c2oc(-c3ccccc3)nc2c1 [JPH203] (top concentration 5000 nM),0
7,CC/C(=C(\c1ccccc1)c1ccc(OCCN(C)C)cc1)c1ccccc1 [Tamoxifen] (top concentration 10000 nM),0.92
8,NC(=S)N/N=C/c1ncccc1N [Triapine] (top concentration 10000 nM),8.48
9,C=CCN(/C=C1/C(=O)O[C@H](COC)[C@@]2(C)C1=C(O)C(=O)C1=C2[C@H](OC(C)=O)C[C@]2(C)C(=O)CC[C@@H]12)CC=C [Sonolisib] (top concentration 10000 nM),-0.76
